Reference: patent US20080188688A1, “SOLVENTS FOR PHASE-TRANSFER-CATALYZED REACTIONS” (priority 2007, published 2008)

Assay: Log P determined in accordance with OECD Guideline No. 107 for the Testing of Chemicals (water/n-octanol)
[1] = Log P (Log P value of the solvent, as measured in accordance with Guideline No. 107), summary table of the examples
[2] = Log P determined in accordance with OECD Guideline 107 for the Testing of Chemicals, water/n-octanol 1:1 by weight, 20° C.
[3] = log P value, as printed in the abbreviations list

Row | Structure (SMILES) | logP [1] | logP [2] | logP [3]
1 | CCCCCCCCCC(=O)N(C)C [Decanoic acid dimethyl amide] | 2.94 | 2.94 | 2.94
2 | CC(=O)CC(C)C [MIBK, methyl isobutyl ketone] | 1.4 | 1.4 | 1.31
3 | COC(C)(C)C [MTBE, methyl tert.butyl ether] | 1.12 | 1.12 | –
